Q: For `COc1cc(Nc2c(C#N)cnc3cc(OCC4CCNCC4)c(OC)cc23)c(Cl)cc1Cl` [Example 53, 4-[(2,4-Dichloro-5-methoxyphenyl)amino]-6-methoxy-7-(piperidin-4-ylmethoxy)quinoline-3-carbonitrile], which melting point is on record?
A: The melting point was 134 to 138 °C.
